Values quoted from earlier work in patent US20210236604A1, “THERAPEUTIC TREATMENT FOR NEUROTROPHIC KERATOPATHY” (priority 2017, published 2021).

What was measured:
[1] = system: corneal epithelium wound healing; conditions: with substance-P; Nishida 2009; cited from earlier work
[2] = system: corneal abrasions; conditions: diabetic rats, cited from earlier work
[3] = system: experimentally-induced superficial skin wounds; conditions: diabetic and non-diabetic individuals; Greenway 1999; cited from earlier work
[4] = system: sub-basal plexus corneal nerves; conditions: diabetic mice; Chen 2013; cited from earlier work
[5] = system: corneal ulcers; conditions: systemic administration; Aynsley 1945; cited from earlier work
[6] = system: decubitus ulcers; conditions: Van Ort 1976; cited from earlier work

Insulin-like growth factor-1 [IGF-1]
corneal epithelium wound healing [1]: act synergistically with substance-P to promote corneal epithelium wound healing

insulin [topical insulin]
wound healing after corneal abrasions ([2]; Zagon 2007, Klocek 2009): improves wound healing
corneal sensation ([2]; Zagon 2007): improves corneal sensation
healing of experimentally-induced superficial skin wounds [3]: improve healing
loss of sub-basal plexus corneal nerves [4]: slow the loss
healing of corneal ulcers [5]: improved healing of corneal ulcers
healing of decubitus ulcers [6]: improve healing
